Experimental data from US20140235502A1, “METHOD FOR SCREENING AND QUANTIFYING ISOPRENE BIOSYNTHESIS ENZYME ACTIVITY” (Institute of Bioscience and Biotechnology, priority 2013, published 2014).

How the values were obtained:
[1] = tested on: IspGESS artificial genetic circuit (TbuT regulator); test: Quantitative fluorescence response of pIspGESS-containing recombinant E. coli to added compounds (FACS); type: cell-based, E. coli DH5α; details: for response of IspGESS fluorescence to the compound: 0-2000 μM, FACS; for concentration from which fluorescence started to be sensed: pIspGESS in E. coli DH5α, M9 medium, 30° C. 18 hours, FACS FL1-H
Procedure: In order to examine the isoprene, toluene, benzene and phenol compounds sensing function of pIspGESS-containing recombinant E. coli, pIspGESS of Example 1 was introduced into a single colony of E. coli DH5α (NEB, USA) by heat shock, and then the E. coli colony was inoculated into an LB liquid medium (1% (w/v) trypton, 0.5% (w/v) yeast extract, and 1% (w/v) sodium chloride) supplemented with 50 μg/Ml of ampicillin and was cultured with shaking at 37° C. for 14 hours. The culture was inoculated into M9 minimal medium (containing 50 μg/Ml ampicillin, 4% glucose and 1% thiamine) at a concentration of 1% and then cultured with shaking at 37° C. for 6 hours. Various concentrations (0-2000 μM) of isoprene was added to each of the test tubes containing the culture broth, after then the culture was cultured with shaking at 30° C. for 18 hours, thereby inducing the expression of fluorescence in the culture. The intensity of intracellular fluorescence induced by each concentration of toluene was analyzed by a FACS Calibur system (Becton Dickinson, USA). As a detector, a FSC, SSC, FL1-H (excitation=488 nm, emission=530/30 nm) detector was set, and data obtained by observing 10,000 samples were analyzed using CellQuest Pro (Becton Dickinson, USA).

[2] = tested on: IspGESS artificial genetic circuit; test: Detection of isoprene synthase activity with IspGESS, pCDF vector (FACS); type: cell-based; details: E. coli BL21(DE3), FACS 10,000 cells
Procedure: First, the IspSm1 gene was inserted into the NcoI-AvrII restriction enzyme site of a pCDF-duet vector (Novagen, USA) to prepare pCDF-IspSm1, which was then introduced into an E. coli BL21 (DE3) strain (NEB, USA) containing pIspGESS of […] of ampicillin and 10 μg/Ml of streptomycin were added to LB liquid medium containing 0.1 mM of IPTG (isopropyl-thio-β-Dgalactopyranoside), and E. coli cells were cultured with shaking in the LB liquid medium at 37° C. for 16 hours. Then, the cultured cells were transferred into M9 liquid medium containing 0.1 mM IPTG and were cultured at 28° C. and 200 rpm for 20 hours. […] The intensity of fluorescence in the cultured cells was analyzed using a FACS Calibur system (Becton Dickinson, USA). As a detector, a FSC, SSC, FL1-H (excitation=488 nm, emission=530/30 nm) detector was set, and data obtained by observing 10,000 samples were analyzed.
As a result, 5×10^5 of mutant library was constructed. […] With the criterion for screening, cells showing fluorescence intensity which is at least 50% higher than that of IspSm1 were sorted using a FACScalibur system (Becton Dickinson, USA). Then, 6 clones having higher fluorescence intensity than IspSm1 were isolated.
The activities of the isolated clones were analyzed by a FACS. As detectors, FSC, SSC, FL1-H (excitation=488 nm, emission=530/30 nm) detectors were set, and 10,000 cells were analyzed.

[3] = tested on: IspGESS artificial genetic circuit; test: Detection of isoprene synthase activity with IspGESS, pPROLar vector (FACS, t-test); type: cell-based; details: E. coli DH5α
Procedure: First, IspSm1 and IspSm2 genes were amplified using PCR with primers (SEQ ID NOS: 13, 14), and inserted into the NdeI-XbaI restriction enzyme site of a pPROLar vector for pPROLar-ispSm1 and pPROLar-ispSm2 (SEQ ID NOS: 15, 16). Then these two vectors were transformed into an E. coli DH5α strain containing IspGESS of Example 1. 50 μg/Ml of ampicillin and 10 μg/Ml of kanamycin were added to LB liquid medium, and E. coli cells were cultured with shaking in the LB liquid medium at 37° C. for 16 hours. 4 Ml of the culture medium was placed in a 10 Ml vial and the cultured bacterial strain was then inoculated at a concentration of 1%. Then, the vial was sealed with a septum and the cells were cultured at 28° C. and 200 rpm for 24 hours. The intensity of fluorescence in the cultured cells was analyzed using a FACScalibur system (Becton Dickinson, USA). As detectors, FSC, SSC, and FL1-H (excitation=488 nm, emission=530/30 nm) detectors were set, and 10,000 samples were analyzed.
To verify the fluorescence differences of IspSm1, IspSm2 and no IspS induction control, the flow cytometry data was analyzed by t-test. The t-test compared the mean values of the fluorescence signals between the negative control (IspGESS without IspSm1 (IspSm2) induction) and the case that includes IspSm1 (IspSm2) inducer. […] Note that there are three replicates of each case (FIG. 8).

| Molecule | response of IspGESS fluorescence to the compound [1] | concentration from which fluorescence started to be sensed [1] | fluorescence intensity / isoprene synthesis activity compared with IspSm1 [2] | fluorescent mean intensity compared with IspGESS with IspSm1 [3] | intensity of fluorescence compared with cells containing neither IspSm1 nor IspSm2 [3] |
| --- | --- | --- | --- | --- | --- |
| Cc1ccccc1 [toluene] | responded | 0.5 µM |  |  |  |
| C=CC(=C)C [isoprene] | increased as the isoprene concentration increased | 50 µM |  |  |  |
| Oc1ccccc1 [phenol] | responded | 50 µM |  |  |  |
| c1ccccc1 [benzene] | responded | 1 µM |  |  |  |
| IspSm2: mutant IspSm1 containing L35R (SEQ ID NO: 8), screened from random mutant library (protein, IspSm2) MACSVSTENVSFTETETETRRSANYEPNSWDYDYRLSSDTDESIEVYKDKAKKLEAEVRREINNEKAEFLTLLELIDNVQRLGLGYRFESDIRRALDRFVSSGGFDAVTKTSLHATALSFRLLRQHGFEVSQEAFSGFKDQNGNFLENLKEDIKAILSLYEASFLALEGENILDEAKVFAISHLKELSEEKIGKDLAEQVNHALELPLHRRTQRLEAVLSIEAYRKKEDADQVLLELAILDYNMIQSVYQRDLRETSRWWRRVGLATKLHFARDRLIESFYWAVGVAFEPQYSDCRNSVAKMFSFVTIIDDIYDVYGTLDELELFTNAVERWDVNAIDDLPDYMKLCFLALYNTINEIAYDNLKEKGENILPYLTKAWADLCNAFLQEAKWLYNKSTPTFDDYFGNAWKSSSGPLQLVFAYFAVVQNIKKEEIENLQKYHDIISRPSHIFRLCNDLASASAEIARGETANSVSCYMRTKGISEELATESVMNLIDETWKKMNKEKLGGSLFAKPFVETAINLARQSHCTYHNGDAHTSPDELTRKRVLSVITEPILPFER |  |  | two times higher | higher | higher |
